Assay results as given in patent publication US20260372305A1, “A METHOD FOR CONTROLLING WEEDS” (SYNGENTA CROP PROTECTION AG, priority 2022, published 2026).

Experiments:
Assay type in all cases: in vivo
[1] = test system: Amaranthus palmeri, PPO inhibitor sensitive population ('Sensitive'); assay: Postemergence control of PPO inhibitor sensitive Amaranthus palmeri (Example 1); conditions: for use rate achieving complete control (no surviving plants) of the 'sensitive' population / % Survival out of 14 repetitions: postemergence, 14 days after application; for % Survival out of 14 repetitions: Sensitive, Adigor 0.5% by volume
Description: (§1) The commercial standard PPO inhibitor fomesafen and compound 1 of the present application were applied to two Amaranthus palmeri populations in order to determine the impact of mutations at amino acid 98 in PPX2L from the wild-type arginine to a glycine.
(§2) The two A. palmeri populations used were as follows: a known PPO inhibitor sensitive population (‘Sensitive’), a population of which each individual was known to be homozygous for a glycine at amino acid 98 in the protoporphyrinogen oxidase gene PPX2L (‘98GG’).
(§3) Seeds were sown in seed trays containing ericaceous compost and covered with vermiculite. When approximately 1 inch in height plants were transplanted 1 per pot into 3-inch diameter pots containing ericaceous compost. The pots were watered and maintained in a glasshouse providing a 16 H photoperiod of 180 μmol m^−2 s^−1 with 24 °C daytime temperatures and 18 °C night-time temperatures and 65% relative humidity until 3 inches tall at which point the herbicides were applied at the use rates specified in Table 1 below to 14 individual plants per rate of each of the biotypes.
(§4) All treatments were applied as dilutions in reverse osmosis water and with the commercial adjuvant Adigor® at 0.5% by volume. Prior to dilution with water compound 8 was initially dissolved to a 5% solution in a solvent mixture comprising 11.12% Emulsogen EL 360, 44.44% Dowanol DPM and 44.44% N-methyl pyrrolidone. Herbicide applications were carried out in a track sprayer with a flat fan nozzle applying the herbicide treatments at a rate of 200 L/ha^−1.
(§5) After treatment, the plants were watered and maintained in a glasshouse providing a 16 H photoperiod of 180 μmol m^−2 s^−1 with 24 °C daytime temperatures and 18 °C night-time temperatures and 65% relative humidity until 14 days after application at which point they were assessed on a ‘dead or alive’ basis. The plants still alive at this point were classed as surviving the herbicide application and the averaged results of this assessment are presented in Table 1.

[2] = test system: Amaranthus palmeri, homozygous for glycine at amino acid 98 in PPX2L ('98GG', R98G); assay: Postemergence control of Amaranthus palmeri with R98G mutation in PPX2L (Example 1); conditions: for % Survival out of 14 repetitions: R98G, postemergence, 14 days after application, Adigor 0.5% by volume
Description: as §1, §2, §3, §4, §5

[3] = test system: Amaranthus tuberculatus, Sensitive; assay: Postemergence control of sensitive population (Example 2); conditions: Agridex 1% by volume

| SMILES | use rate achieving complete control (no surviving plants) of the 'sensitive' population ([1]; 'sensitive' population) [g ai/ha^−1] | % Survival out of 14 repetitions ([1]; 1 g ai/ha^−1) [%] | % Survival out of 14 repetitions ([1]; 2 g ai/ha^−1) [%] | % Survival out of 14 repetitions ([1]; 4 g ai/ha^−1) [%] | % Survival out of 14 repetitions ([1]; 8 g ai/ha^−1) [%] | % Survival out of 14 repetitions ([1]; 16 g ai/ha^−1) [%] | % Survival out of 14 repetitions ([1]; 32 g ai/ha^−1) [%] | % Survival out of 14 repetitions ([1]; 64 g ai/ha^−1) [%] | % Survival out of 14 repetitions ([2]; 1 g ai/ha^−1) [%] | % Survival out of 14 repetitions ([2]; 2 g ai/ha^−1) [%] | % Survival out of 14 repetitions ([2]; 4 g ai/ha^−1) [%] | % Survival out of 14 repetitions ([2]; 8 g ai/ha^−1) [%] | % Survival out of 14 repetitions ([2]; 16 g ai/ha^−1) [%] | % Survival out of 14 repetitions ([2]; 32 g ai/ha^−1) [%] | % Survival out of 14 repetitions ([2]; 64 g ai/ha^−1) [%] | also measured |
| --- | --- | --- | --- | --- | --- | --- | --- | --- | --- | --- | --- | --- | --- | --- | --- | --- |
| CCOC(=O)[C@]1(C)CC(c2cc(-n3c(=O)n(C)c(=S)n(C)c3=O)c(F)cc2Cl)=NO1 [compound 1, ethyl (5S)-3-[2-chloro-5-(3,5-dimethyl-2,6-dioxo-4-thioxo-1,3,5-triazinan-1-yl)-4-fluoro-phenyl]-5-methyl-4H-isoxazole-5-carboxylate] | ≥ 16 | 100 | 86 | 43 | 7 | 0 | 0 | 0 | 100 | 100 | 100 | 100 | 79 | 79 | 21 | ability for controlling the 'sensitive' population compared with fomesafen ([1]; 'sensitive' population, compared with fomesafen): improved ability compared with fomesafen for controlling the ‘sensitive’ population; % Survival out of 14 repetitions ([1]; 0.5 g ai/ha^−1): 100%; control of '98GG' ([2]; '98GG', 16 g ai/ha^−1 rate, compared with fomesafen): better control of ‘98GG’; % Survival out of 14 repetitions ([2]; 0.5 g ai/ha^−1): 100%; % Survival out of 14 repetitions ([3]; 0.5 g ai/ha^−1, 14 days after application): 100%; % Survival out of 14 repetitions ([3]; 1 g ai/ha^−1, 14 days after application): 100%; % Survival out of 14 repetitions ([3]; 2 g ai/ha^−1, 14 days after application): 86%; % Survival out of 14 repetitions ([3]; 4 g ai/ha^−1, 14 days after application): 43%; % Survival out of 14 repetitions ([3]; 8 g ai/ha^−1, 14 days after application): 14%; % Survival out of 14 repetitions ([3]; 16 g ai/ha^−1, 14 days after application): 0%; % Survival out of 14 repetitions ([3]; 32 g ai/ha^−1, 14 days after application): 0%; % Survival out of 14 repetitions ([3]; 64 g ai/ha^−1, 14 days after application): 0% |
| CS(=O)(=O)NC(=O)c1cc(Oc2ccc(C(F)(F)F)cc2Cl)ccc1[N+](=O)[O-] [fomesafen, reference compound] | ≥ 64 | 100 | 100 | 86 | 71 | 14 | 7 | 0 | 100 | 100 | 100 | 100 | 100 | 93 | 93 | % Survival out of 14 repetitions ([1]; 128 g ai/ha^−1): 0%; % Survival out of 14 repetitions ([2]; 128 g ai/ha^−1): 93% |
